The numbers were not newly measured in US20050255161A1, “Method for the long term stabilization of labile compounds at room temperature in pharmaceutical preparations containing water” (priority 2004, published 2005), which cites them from elsewhere.

Where two headings read alike, the source gives them in different places.

In the case of `CCCCC[C@H](O)/C=C/[C@H]1[C@H](O)CC(=O)[C@@H]1CCCCCCC(=O)O` [prostaglandin E1, (13E)-(15S)-11alpha, 15-dihydroxy-9-oxoprost-13-enoate], the “solubility in aqueous systems” value by setting is: (low acidic medium) ~10 μg's; (slightly alkaline medium) ~100 μg's.
